Results taken from ChEMBL document CHEMBL1130430, “Assessment of solvation effects on calculated binding affinity differences: trypsin inhibition by flavonoids as a model system for congeneric series” (J Med Chem, 1997).

Biological target: T1, Serine protease 1 (Bos taurus, UniProt P00760)
T1 sequence (P00760 whole entry): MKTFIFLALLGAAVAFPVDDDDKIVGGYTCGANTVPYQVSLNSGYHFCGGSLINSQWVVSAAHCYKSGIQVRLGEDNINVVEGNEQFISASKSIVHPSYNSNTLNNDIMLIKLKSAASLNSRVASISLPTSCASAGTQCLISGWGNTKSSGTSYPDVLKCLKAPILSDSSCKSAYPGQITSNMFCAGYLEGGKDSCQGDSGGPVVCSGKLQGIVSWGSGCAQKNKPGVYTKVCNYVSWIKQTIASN
Assay: Inhibitory concentration of the compounds against Bovine trypsin enzyme.

Row | Compound | IC50
1 | COc1cc([C@@H]2Oc3c(O)cc([C@H]4Oc5cc(O)cc(O)c5C(=O)[C@@H]4O)cc3[C@H]2CO)ccc1O [SILICRISTIN] | 144 µM
2 | O=c1cc(-c2ccc(O)cc2)oc2cc(O)cc(O)c12 [APIGENIN] | 142 µM
3 | O=c1cc(-c2ccc(O)c(O)c2)oc2cc(O)cc(O)c12 [LUTEOLIN] | 35.3 µM
4 | O=c1c(O)c(-c2ccc(O)cc2)oc2cc(O)cc(O)c12 [KAEMPFEROL] | 106 µM
5 | O=c1c(O)c(-c2cc(O)c(O)c(O)c2)oc2cc(O)cc(O)c12 [MYRICETIN] | 10.2 µM
6 | O=c1c(O)c(-c2ccc(O)cc2O)oc2cc(O)cc(O)c12 [MORIN] | 111 µM

Biological target: not listed separately
Assay: Disassociation constant (KI) was obtained from Cheng and Prusoff equation for quercetin trypsin complex

Row | Compound | Ki
7 | COc1cc([C@@H]2Oc3c(O)cc([C@H]4Oc5cc(O)cc(O)c5C(=O)[C@@H]4O)cc3[C@H]2CO)ccc1O [SILICRISTIN] | 40.3 µM
8 | O=c1cc(-c2ccc(O)cc2)oc2cc(O)cc(O)c12 [APIGENIN] | 39.5 µM
9 | O=c1cc(-c2ccc(O)c(O)c2)oc2cc(O)cc(O)c12 [LUTEOLIN] | 9.84 µM
10 | O=c1c(O)c(-c2ccc(O)cc2)oc2cc(O)cc(O)c12 [KAEMPFEROL] | 29.5 µM
11 | O=c1c(O)c(-c2ccc(O)c(O)c2)oc2cc(O)cc(O)c12 [QUERCETIN] | 1.98 µM
12 | O=c1c(O)c(-c2cc(O)c(O)c(O)c2)oc2cc(O)cc(O)c12 [MYRICETIN] | 2.84 µM
13 | O=c1c(O)c(-c2ccc(O)cc2O)oc2cc(O)cc(O)c12 [MORIN] | 30.9 µM
